{"source": "paper PMC5974752", "about": "“Bax/Tubulin/Epithelial-Mesenchymal Pathways Determine the Efficacy of Silybin Analog HM015k in Colorectal Cancer Cell Growth and Metastasis” (Frontiers in Pharmacology, 2018)", "key": {"[1]": {"system": "HCT116 Bak knockout (Bak–/–) cells", "test": "MTT assay, knockout cells", "format": "cell-based", "conditions": "Homo sapiens, HCT-116, not significantly different from WT", "method": "(§1) Colorectal cancer cell lines, including HCT116, LOVO, and S1, with varying drug sensitivity and invasiveness, were grown as adherent monolayer in culturing flasks. Normal epithelial cells lines (Chinese hamster ovarian: CHO, normal epithelial colon: CRL1459) were also grown. Both cancerous and normal cell lines were kindly obtained from the late Dr. Gary Kruh (University of Chicago, Illinois). In addition, CRC HCT116 Bax knockout (Bax–/–) cells were kindly provided by Dr. Bert Vogelstein (Johns Hopkins, Baltimore) (Zhang et al., [2000]), Bak knockout (Bak–/–) and Bax-Bak double knockout (Bax–/– and Bak–/–) cells were kindly provided by Richard Youle (NIH, […], MD) (Wang and Youle, [2012]). DMEM, with 4.5 g of glucose, was supplemented with 10% fetal bovine serum (FBS) and 1% penicillin/streptomycin and used for all cell lines. The cells were cultured in a humidified incubator containing 5% CO2 at 37°C. All of cells were checked and confirmed to be free of fungi and mycoplasma. Cells were obtained from frozen stocks and cell passaging (up to P4) was performed at 80% cell confluency by PBS and trypsin + 2.2 mM EDTA.\n(§2) The 3-(4,5-dimethylthiazol-2-yl)-2,5-diphenyltetrazolium bromide (MTT) assay was used to determine the sensitivity of the different CRC cells to the novel silybin derivatives (Hussein et al., [2017]; Manivannan et al., [2017]). The cells were seeded at a density of 4,000–5,000 cells/well in 96 well plates and incubated with serial dilutions of the compounds (0, 0.1, 0.3, 1, 3, 10, 30, and 100 μM). The MTT dye (4 mg/ml) was added after 72 h of incubation and incubated with the cells for an additional 4 h at 37°C. […] A DTX 880 multimode detector (Beckman Coulter Life, Indianapolis IN, USA) was used to determine the absorbance readings at a wavelength of 570 nm. The IC50 values were determined based on 3 separate experiments, with each experiment done in triplicate. The selectivity of the compounds was determined by comparing their cytotoxicity for CRC to normal epithelial cell lines (CHO, and CRL1459)."}, "[2]": {"system": "HCT116 Bax knockout (Bax–/–) cells", "test": "MTT assay, knockout cells", "format": "cell-based", "conditions": "Homo sapiens, HCT-116, p < 0.05 vs WT", "method": "as §1, §2"}, "[3]": {"system": "HCT116 Bax-Bak double knockout (DKO) cells", "test": "MTT assay, knockout cells", "format": "cell-based", "conditions": "Homo sapiens, HCT-116, p < 0.05 vs WT", "method": "as §1, §2"}, "CRL-1459": {"system": "CRL-1459", "test": "MTT assay, normal cell line", "format": "cell-based", "conditions": "72 h incubation, mean ± SD of three experiments", "method": "(§3) The 3-(4,5-dimethylthiazol-2-yl)-2,5-diphenyltetrazolium bromide (MTT) assay was used to determine the sensitivity of the different CRC cells to the novel silybin derivatives (Hussein et al., [2017]; Manivannan et al., [2017]). The cells were seeded at a density of 4,000–5,000 cells/well in 96 well plates and incubated with serial dilutions of the compounds (0, 0.1, 0.3, 1, 3, 10, 30, and 100 μM). The MTT dye (4 mg/ml) was added after 72 h of incubation and incubated with the cells for an additional 4 h at 37°C. Following incubation, the media was discarded and the formazan crystals were dissolved by adding 100 μL of DMSO to each well. A DTX 880 multimode detector (Beckman Coulter Life, Indianapolis IN, USA) was used to determine the absorbance readings at a wavelength of 570 nm. The IC50 values were determined based on 3 separate experiments, with each experiment done in triplicate. The selectivity of the compounds was determined by comparing their cytotoxicity for CRC to normal epithelial cell lines (CHO, and CRL1459)."}, "HCT116 cells": {"system": "HCT116 cells", "test": "Colony formation assay", "format": "cell-based, human", "conditions": "2 and 4 μM, 12 h incubation, colonies 10–14 days, vs vehicle control", "method": "In this assay, HCT116 cells were seeded in 6 well plates at a density of 250,000 cells/plate and allowed to grow overnight. Compounds 15j and 15k (0, 2 or 4 μM) were added the following day. After 12 h of incubation, the medium was discarded and cells were trypsinized with 0.25% trypsin, 2.21 mM EDTA, 1X, harvested, counted and reseeded in 6 well plates at a low density (500 cell/well). The cells were allowed to form colonies for 10–14 days at 37°C, with the medium being changed every other day. Subsequently, methanol was used to fix the colonies formed in each plate, followed by dyeing the colonies with 0.1% crystal violet dye for 30 min. Finally, colonies were viewed and counted under an EVOS microscope (Themo Fisher Scientific, Wayne, MI, USA). The colony formation rate equation was applied for each compound: Colony formation rate = number of colonies/number of seeded cells × 100 %."}, "HCT116": {"system": "HCT116", "test": "MTT assay", "format": "cell-based, human", "conditions": "Homo sapiens, HCT-116, MTT", "method": "as §3"}, "β-catenin": {"system": "β-catenin", "test": "Western blot in HCT116 cells (nuclear)", "format": "cell-based, human", "conditions": "4 μM, p < 0.001 vs control", "method": "HCT116 cells were lysed to obtain cytoplasmic and nuclear protein fractions, according to the protocol used in previous publications (Alhadidi and Shah, [2017]). Briefly, the cells were seeded in and incubated with 15k for overnight at 4μM. The cells were washed using ice-cold PBS and scraped using a cell scraper and collected in 15ml tubes. The cells were centrifuged and the PBS was discarded and replaced with 400 μl of buffer A (10 mM HEPES, pH 7.9, 0.1 mM EDTA, 0.1 mM EGTA, 10 mM KCl, 1 mM dithiothreitol, and 0.5 mM phenylmethylsulfonyl fluoride) in each tube. The cells were allowed to swell under in the buffer for 15 min on ice. Subsequently, 0.1% Nonidet P-40 was added to each suspension for 1 min to disturb the plasma membrane. The nuclei were precipitated by centrifugation at 13,000 rpm for 1 min at 4°C. The cytoplasmic proteins were collected in the supernatant and stored at −80°C. Two hundred μl of Buffer B (20 mM HEPES, pH 7.9, 1 mM EDTA, 1 mM EGTA, 400 mM NaCl, 1 mM dithiothreitol, and 1 mM phenylmethylsulfonyl fluoride) was added to the pellets and left for 30 min on ice with periodic mixing. […] The bicinchoninic acid (BCA) quantification assay was used to determine the concentration of protein in the cell extracts. […] Finally, proteins were quantified using the image J software. Data were calculated as ratios to β-actin."}}, "note": "Where two headings read alike, the source gives them in different places.", "data": [{"smiles": "O=C(/C=C/c1cccc(OCc2ccccc2)c1)c1ccc(O)cc1", "note": "[Compound 15k]", "values": [{"measurement": "IC50", "setting": "[1]", "value": 3.6, "unit": "µM"}, {"measurement": "IC50", "setting": "[2]", "value": 10.9, "unit": "µM"}, {"measurement": "IC50", "setting": "[3]", "value": 13.6, "unit": "µM"}, {"measurement": "IC50", "setting": "CRL-1459", "value": "8.5 ± 0.7", "unit": "µM"}, {"measurement": "colony formation rate", "setting": "HCT116 cells", "value": "decreased significantly"}, {"measurement": "IC50", "setting": "HCT116; 72 h incubation, mean ± SD of three experiments, read-out: IC50 ± SD, Colon HCT116", "value": 0.9, "unit": "µM"}, {"measurement": "IC50", "setting": "HCT116; comparison with knockout cells, read-out: IC50, HCT116 wild type", "value": 0.89, "unit": "µM"}, {"measurement": "nuclear β-catenin full-length protein (p1 and p2)", "setting": "β-catenin", "value": "induced the cleavage of the full-length protein"}]}]}
